US7138361B2, “Herbicidal heterocycles” (E. I. du Pont de Nemours and Company, priority 2000, dated 2006)

Assays:
Format in all cases: in vivo
[1] = system: cocklebur (Xanthium strumarium); experiment: Test B postemergence; settings: 13 to 15 days
Procedure, shortened: (§1)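 Pre: seeded pots sprayed, chemical in non-phytotoxic solvent/surfactant mix. Post: plants 2–18 cm, 1–4 leaf, same formulation. Greenhouse 13–15 d; visual % control vs untreated, 0–100 scale.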

[2] = system: wild oat (Avena fatua); experiment: Test B postemergence; settings: 13 to 15 days
Procedure, shortened: as §1

[3] = system: lambsquarters (Chenopodium album); experiment: Test B postemergence; settings: 13 to 15 days
Procedure, shortened: as §1

[4] = system: barnyardgrass (Echinochloa crus-galli); experiment: Test B postemergence; settings: 13 to 15 days
Procedure, shortened: as §1

[5] = system: wheat (Triticum aestivum); experiment: Test B postemergence; settings: 13 to 15 days
Procedure, shortened: as §1

[6] = system: corn (Zea mays); experiment: Test B postemergence; settings: 13 to 15 days
Procedure, shortened: as §1

[7] = system: blackgrass (Alopecurus myosuroides); experiment: Test B postemergence; settings: 13 to 15 days
Procedure, shortened: as §1

[8] = system: giant foxtail (Setaria faberii); experiment: Test B postemergence; settings: 13 to 15 days
Procedure, shortened: as §1

[9] = system: Surinam grass (Brachiaria decumbens); experiment: Test B postemergence; settings: 13 to 15 days
Procedure, shortened: as §1

[10] = system: crabgrass (Digitaria sanguinalis); experiment: Test B postemergence; settings: 13 to 15 days
Procedure, shortened: as §1

[11] = system: pigweed (Amaranthus retroflexus); experiment: Test B postemergence; settings: 13 to 15 days
Procedure, shortened: as §1

[12] = system: morning glory (Ipomoea hederacea); experiment: Test B postemergence; settings: 13 to 15 days
Procedure, shortened: as §1

[13] = system: velvetleaf (Abutilon theophrasti); experiment: Test B postemergence; settings: 13 to 15 days
Procedure, shortened: as §1

[14] = system: Sunflower; experiment: Test C preemergence; settings: scale 0 to 100, 0 no effect, 100 complete control
[15] = system: cocklebur (Xanthium strumarium); experiment: Test B preemergence
Procedure, shortened: as §1

[16] = system: lambsquarters (Chenopodium album); experiment: Test B preemergence
Procedure, shortened: as §1

[17] = system: barnyardgrass (Echinochloa crus-galli); experiment: Test B preemergence
Procedure, shortened: as §1

[18] = system: corn (Zea mays); experiment: Test B preemergence
Procedure, shortened: as §1

[19] = system: giant foxtail (Setaria faberii); experiment: Test B preemergence
Procedure, shortened: as §1

[20] = system: Surinam grass (Brachiaria decumbens); experiment: Test B preemergence
Procedure, shortened: as §1

[21] = system: crabgrass (Digitaria sanguinalis); experiment: Test B preemergence
Procedure, shortened: as §1

[22] = system: pigweed (Amaranthus retroflexus); experiment: Test B preemergence
Procedure, shortened: as §1

[23] = system: rice (Oryza saliva); experiment: Test B preemergence
Procedure, shortened: as §1

[24] = system: morning glory (Ipomoea hederacea); experiment: Test B preemergence
Procedure, shortened: as §1

[25] = system: velvetleaf (Abutilon theophrasti); experiment: Test B preemergence
Procedure, shortened: as §1

[26] = system: Nightshade; experiment: Test C preemergence; settings: Rate 500 g/ha, visual evaluation after 12 to 14 days
[27] = Rate 125 g/ha, scale 0 (no effect) to 100 (complete control)
[28] = Rate 500 g/ha, scale 0 to 100, 0 is no effect, 100 is complete control
[29] = Preemergence, Rate 500 g/ha, scale 0 to 100, 0 no effect, 100 complete control
[30] = preemergence, Rate 125 g/ha, scale of 0 to 100 where 0 is no effect and 100 is complete control, 13 to 15 days

CSc1cccc(N2CCC(n3ccc(C(C)(C)C)n3)C2=O)c1 (stereo not drawn) [Compound 86]
Plant response rating, Cocklebur [1, 27]: 0
Plant response rating, Cocklebur [1, 28]: 0
Plant response rating, Wild Oat [2, 27]: 0
Plant response rating, Wild Oat [2, 28]: 0
Plant response rating, Lambsquarters [3, 27]: 0
Plant response rating, Lambsquarters [3, 28]: 50
Plant response rating, Barnyardgrass [4, 27]: 0
Plant response rating, Barnyardgrass [4, 28]: 0
Plant response rating, Wheat [5, 27]: 0
Plant response rating, Wheat [5, 28]: 0
Plant response rating, Corn [6, 27]: 0
Plant response rating, Corn [6, 28]: 0
Plant response rating, Blackgrass [7, 27]: 0
Plant response rating, Blackgrass [7, 28]: 0
Plant response rating, Foxtail, Giant [8, 27]: 0
Plant response rating, Foxtail, Giant [8, 28]: 0
Plant response rating, Surinam grass [9, 27]: 0
Plant response rating, Surinam grass [9, 28]: 0
Plant response rating, Crabgrass [10, 27]: 0
Plant response rating, Crabgrass [10, 28]: 0
Plant response rating, Pigweed [11, 27]: 0
Plant response rating, Pigweed [11, 28]: 0
Plant response rating, Morningglory [12, 27]: 0
Plant response rating, Morningglory [12, 28]: 0
Plant response rating, Velvetleaf [13, 27]: 0
Plant response rating, Velvetleaf [13, 28]: 0
Plant response rating, Sunflower ([14]; Rate 250 g/ha): 20
Plant response rating, Cocklebur [15, 29]: 0
Plant response rating, Cocklebur [15, 30]: 0
Plant response rating, Lambsquarters [16, 29]: 100
Plant response rating, Lambsquarters [16, 30]: 100
Plant response rating, Barnyardgrass [17, 29]: 100
Plant response rating, Barnyardgrass [17, 30]: 0
Plant response rating, Corn [18, 29]: 20
Plant response rating, Corn [18, 30]: 0
Plant response rating, Foxtail, Giant [19, 29]: 100
Plant response rating, Foxtail, Giant [19, 30]: 80
Plant response rating, Surinam grass [20, 29]: 60
Plant response rating, Surinam grass [20, 30]: 0
Plant response rating, Crabgrass [21, 29]: 100
Plant response rating, Crabgrass [21, 30]: 0
Plant response rating, Pigweed [22, 29]: 100
Plant response rating, Pigweed [22, 30]: 100
Plant response rating, Rice [23, 29]: 0
Plant response rating, Rice [23, 30]: 0
Plant response rating, Morningglory [24, 29]: 0
Plant response rating, Morningglory [24, 30]: 0
Plant response rating, Velvetleaf [25, 29]: 0
Plant response rating, Velvetleaf [25, 30]: 0
Plant response rating (0 to 100), Nightshade [26]: 10

CC(C)(C)c1ccn(C2CCN(c3ccc(F)c(Br)c3)C2=O)n1 (stereo not drawn) [Compound 75]
Plant response rating, Cocklebur [1, 27]: 0
Plant response rating, Cocklebur [1, 28]: 0
Plant response rating, Wild Oat [2, 27]: 0
Plant response rating, Wild Oat [2, 28]: 0
Plant response rating, Lambsquarters [3, 27]: 70
Plant response rating, Lambsquarters [3, 28]: 80
Plant response rating, Barnyardgrass [4, 27]: 0
Plant response rating, Barnyardgrass [4, 28]: 0
Plant response rating, Wheat [5, 27]: 0
Plant response rating, Wheat [5, 28]: 0
Plant response rating, Corn [6, 27]: 0
Plant response rating, Corn [6, 28]: 0
Plant response rating, Blackgrass [7, 27]: 0
Plant response rating, Blackgrass [7, 28]: 0
Plant response rating, Foxtail, Giant [8, 27]: 0
Plant response rating, Foxtail, Giant [8, 28]: 0
Plant response rating, Surinam grass [9, 27]: 0
Plant response rating, Surinam grass [9, 28]: 0
Plant response rating, Crabgrass [10, 27]: 0
Plant response rating, Crabgrass [10, 28]: 0
Plant response rating, Pigweed [11, 27]: 50
Plant response rating, Pigweed [11, 28]: 90
Plant response rating, Morningglory [12, 27]: 20
Plant response rating, Morningglory [12, 28]: 60
Plant response rating, Velvetleaf [13, 27]: 0
Plant response rating, Velvetleaf [13, 28]: 50
Plant response rating, Sunflower ([14]; Rate 250 g/ha): 0
Plant response rating, Cocklebur [15, 29]: 70
Plant response rating, Cocklebur [15, 30]: 30
Plant response rating, Lambsquarters [16, 29]: 100
Plant response rating, Lambsquarters [16, 30]: 100
Plant response rating, Barnyardgrass [17, 29]: 100
Plant response rating, Barnyardgrass [17, 30]: 100
Plant response rating, Corn [18, 29]: 20
Plant response rating, Corn [18, 30]: 0
Plant response rating, Foxtail, Giant [19, 29]: 100
Plant response rating, Foxtail, Giant [19, 30]: 100
Plant response rating, Surinam grass [20, 29]: 100
Plant response rating, Surinam grass [20, 30]: 60
Plant response rating, Crabgrass [21, 29]: 100
Plant response rating, Crabgrass [21, 30]: 100
Plant response rating, Pigweed [22, 29]: 100
Plant response rating, Pigweed [22, 30]: 100
Plant response rating, Rice [23, 29]: 70
Plant response rating, Rice [23, 30]: 50
Plant response rating, Morningglory [24, 29]: 0
Plant response rating, Morningglory [24, 30]: 0
Plant response rating, Velvetleaf [25, 29]: 70
Plant response rating, Velvetleaf [25, 30]: 50
Plant response rating (0 to 100), Nightshade [26]: 50

CC(C)Oc1cccc(N2CCC(n3ccc(C(C)(C)C)n3)C2=O)c1 (stereo not drawn) [Compound 70]
Plant response rating, Cocklebur [1, 27]: 0
Plant response rating, Cocklebur [1, 28]: 0
Plant response rating, Wild Oat [2, 27]: 0
Plant response rating, Wild Oat [2, 28]: 0
Plant response rating, Lambsquarters [3, 27]: 0
Plant response rating, Lambsquarters [3, 28]: 0
Plant response rating, Barnyardgrass [4, 27]: 0
Plant response rating, Barnyardgrass [4, 28]: 0
Plant response rating, Wheat [5, 27]: 0
Plant response rating, Wheat [5, 28]: 0
Plant response rating, Corn [6, 27]: 0
Plant response rating, Corn [6, 28]: 0
Plant response rating, Blackgrass [7, 27]: 0
Plant response rating, Blackgrass [7, 28]: 0
Plant response rating, Foxtail, Giant [8, 27]: 0
Plant response rating, Foxtail, Giant [8, 28]: 0
Plant response rating, Surinam grass [9, 27]: 0
Plant response rating, Surinam grass [9, 28]: 0
Plant response rating, Crabgrass [10, 27]: 0
Plant response rating, Crabgrass [10, 28]: 0
Plant response rating, Pigweed [11, 27]: 0
Plant response rating, Pigweed [11, 28]: 0
Plant response rating, Morningglory [12, 27]: 30
Plant response rating, Morningglory [12, 28]: 30
Plant response rating, Velvetleaf [13, 27]: 0
Plant response rating, Velvetleaf [13, 28]: 0
Plant response rating, Sunflower ([14]; Rate 125 g/ha): 20
Plant response rating, Sunflower ([14]; Rate 250 g/ha): 60
Plant response rating, Cocklebur [15, 29]: 0
Plant response rating, Cocklebur [15, 30]: 0
Plant response rating, Lambsquarters [16, 29]: 100
Plant response rating, Lambsquarters [16, 30]: 100
Plant response rating, Foxtail, Giant [19, 29]: 100
Plant response rating, Foxtail, Giant [19, 30]: 90
Plant response rating, Surinam grass [20, 29]: 0
Plant response rating, Surinam grass [20, 30]: 0
Plant response rating, Crabgrass [21, 29]: 100
Plant response rating, Crabgrass [21, 30]: 90
Plant response rating, Pigweed [22, 29]: 100
Plant response rating, Pigweed [22, 30]: 100
Plant response rating, Rice [23, 29]: 30
Plant response rating, Rice [23, 30]: 30
Plant response rating, Morningglory [24, 29]: 80
Plant response rating, Morningglory [24, 30]: 20
Plant response rating, Velvetleaf [25, 29]: 0
Plant response rating, Velvetleaf [25, 30]: 0
Plant response rating (0 to 100), Nightshade [26]: 70

CCC(CC)c1ccn(C2CCN(c3cccc(OC(C)C)c3)C2=O)n1 (stereo not drawn) [Compound 84]
Plant response rating, Cocklebur [1, 27]: 10
Plant response rating, Cocklebur [1, 28]: 20
Plant response rating, Wild Oat [2, 27]: 0
Plant response rating, Wild Oat [2, 28]: 10
Plant response rating, Lambsquarters [3, 27]: 50
Plant response rating, Lambsquarters [3, 28]: 60
Plant response rating, Barnyardgrass [4, 27]: 0
Plant response rating, Barnyardgrass [4, 28]: 80
Plant response rating, Wheat [5, 27]: 0
Plant response rating, Wheat [5, 28]: 0
Plant response rating, Corn [6, 27]: 0
Plant response rating, Corn [6, 28]: 0
Plant response rating, Blackgrass [7, 27]: 0
Plant response rating, Blackgrass [7, 28]: 0
Plant response rating, Foxtail, Giant [8, 27]: 0
Plant response rating, Foxtail, Giant [8, 28]: 10
Plant response rating, Surinam grass [9, 27]: 0
Plant response rating, Surinam grass [9, 28]: 10
Plant response rating, Crabgrass [10, 27]: 0
Plant response rating, Crabgrass [10, 28]: 10
Plant response rating, Pigweed [11, 27]: 60
Plant response rating, Pigweed [11, 28]: 70
Plant response rating, Morningglory [12, 27]: 10
Plant response rating, Morningglory [12, 28]: 30
Plant response rating, Velvetleaf [13, 27]: 0
Plant response rating, Velvetleaf [13, 28]: 10
Plant response rating, Sunflower ([14]; Rate 250 g/ha): 30
Plant response rating, Cocklebur [15, 29]: 0
Plant response rating, Cocklebur [15, 30]: 0
Plant response rating, Barnyardgrass [17, 29]: 100
Plant response rating, Barnyardgrass [17, 30]: 100
Plant response rating, Corn [18, 29]: 20
Plant response rating, Corn [18, 30]: 0
Plant response rating, Foxtail, Giant [19, 29]: 100
Plant response rating, Foxtail, Giant [19, 30]: 100
Plant response rating, Surinam grass [20, 29]: 100
Plant response rating, Surinam grass [20, 30]: 80
Plant response rating, Crabgrass [21, 29]: 100
Plant response rating, Crabgrass [21, 30]: 100
Plant response rating, Pigweed [22, 29]: 100
Plant response rating, Pigweed [22, 30]: 100
Plant response rating, Rice [23, 29]: 100
Plant response rating, Rice [23, 30]: 0
Plant response rating, Morningglory [24, 29]: 0
Plant response rating, Morningglory [24, 30]: 0
Plant response rating, Velvetleaf [25, 29]: 0
Plant response rating, Velvetleaf [25, 30]: 0
Plant response rating (0 to 100), Nightshade [26]: 100
